Data from paper PMC7470070, “Discovery of N-(1-(3-fluorobenzoyl)-1H-indol-5-yl)pyrazine-2-carboxamide: a novel, selective, and competitive indole-based lead inhibitor for human monoamine oxidase B” (Journal of Enzyme Inhibition and Medicinal Chemistry, 2020).
“Also recorded” adds a separate entry of the source. Like-named read-outs stand apart in the source and are kept apart here.

Experiments:
[1] = target: T1, Human recombinant MAO-B (hMAO-B) (Homo sapiens, UniProt P27338); test: Monoamine oxidase enzyme assay (Amplex Red), MAO-B; assay type: biochemical; details: for inhibition at 10 µM: read-out: Inhibition percent of MAO-B; for IC50: as given in abstract; for SI (selectivity index), IC50 (MAO-A)/IC50 (MAO-B): selectivity for the MAO-B isoform
T1 construct: purchased Sigma-Aldrich (St. Louis, MO); host or cells: insect cells
T1 sequence (P27338 1-520): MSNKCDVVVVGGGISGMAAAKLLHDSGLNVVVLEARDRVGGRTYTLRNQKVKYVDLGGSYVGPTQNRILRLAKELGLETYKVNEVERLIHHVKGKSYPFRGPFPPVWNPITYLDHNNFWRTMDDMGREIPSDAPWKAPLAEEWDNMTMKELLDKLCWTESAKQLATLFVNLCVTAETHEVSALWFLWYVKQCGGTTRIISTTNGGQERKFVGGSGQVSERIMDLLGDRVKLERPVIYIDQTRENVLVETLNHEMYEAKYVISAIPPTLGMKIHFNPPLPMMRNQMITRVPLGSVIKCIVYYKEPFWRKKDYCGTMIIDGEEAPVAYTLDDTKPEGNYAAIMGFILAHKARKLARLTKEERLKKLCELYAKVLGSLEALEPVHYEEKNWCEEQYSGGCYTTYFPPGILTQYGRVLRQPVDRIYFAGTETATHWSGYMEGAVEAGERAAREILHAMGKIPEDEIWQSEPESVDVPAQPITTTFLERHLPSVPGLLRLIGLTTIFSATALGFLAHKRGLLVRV
Method: (§1) The inhibitory activity of MAO-A, B enzyme of the compounds was evaluated based on previously described method. The MAO activity was measured in relative fluorescence units (RFUs) evoked by peroxidase-catalyzed oxidation of Amplex Red® to resorufin, in which H2O2 generated by MAO reaction was used as the electron donor. Human recombinant MAO-A (hMAO-A) and MAO-B (hMAO-B) enzyme expressed in insect cells were obtained from Sigma-Aldrich (St. Louis, MO). The 2 μL of test compound in DMSO (final concentration: 1 nM to 10 μM) was treated with 98 μL of hMAO enzyme solution in 50 mM sodium phosphate buffer (pH 7.4, final protein amounts: ∼1.25 μg protein/well for MAO-A and ∼2.5 μg protein/well for MAO-B) on 96-well black plate and incubated for 15 min at 37 °C. Then, 100 μL of reaction working solution which is mixed solution of 400 μM Amplex Red® (Cayman, Ann Arbor, MI, final concentration: 200 μM), 2 U/mL horseradish peroxidase (Sigma-Aldrich, St. Louis, MO, final concentration: 1 U/mL) and 2 mM substrate (p-tyramine for MAO-A, benzylamine for MAO-B, Sigma-Aldrich, St. Louis, MO, final concentration: 1 mM) in 50 mM sodium phosphate buffer (pH 7.4) were added and incubated for 20 min at 37 °C in the dark. The fluorescent intensity was quantified using a microplate reader (SpectraMax®i3, Molecular Devices, Sunnyvale, CA) with an excitation at 545 nm and an emission at 590 nm. The 50% inhibitory concentrations (IC50) of compounds were determined as the mean ± SEM in triplicate from the dose–response inhibition curves using SigmaPlot® 13.0 (Palo Alto, CA).
The target compounds 4a−l were biologically evaluated for their potential inhibitory activities over human MAO-B recombinant enzyme. The enzyme inhibition assay of the tested compounds was conducted using Amplex® Red reagent technology which offers quantitative enzyme activity sensitive detection with extended dynamic range compared to classic colorimetric oxidase assays in addition to its advantage of the fluorescence emission outside the range of compound autofluorescence (if any). Since Amplex® Red reagent is a colourless substrate able to react with H2O2 with a 1:1 stoichiometry to yield highly fluorescent resorufin, the elicited inhibitory activities of the tested compounds over MAO-B were evaluated via spectrophotometrical measurement and the fluorescence rate of the resorufin dye formation was detected. As mentioned previously, all the target compounds were designed to incorporate the same amide moiety in VI and VII at position 5 of the indole scaffold connecting one of three different heteroaromatic cycles with the indole core which is substituted with either aromatic or aliphatic moiety. […] In addition, we noticed that the benzyl and benzoyl moieties, bearing the electron-withdrawing 3- or 4-fluoro groups in 4a−f, exerted better inhibition than the pyridylmethyl substituent (4g−i). […] It is also noteworthy to mention that the three different heteroaryl cycles incorporated in our design (pyridazine, pyrazine, and pyridine) were represented in each of the last three compounds.
The inhibitory potencies (IC50 values) of compounds producing inhibition of MAO-B activity by more than 50% were determined using five doses assay with 10, 1, 0.1, 0.01, and 0.001 μM concentrations of the tested compounds. Consequently, analogues 4b and 4e were further evaluated to determine their IC50 over MAO-B in triplicate from the dose response inhibition curves using Sigma-Plot software version 13.0 as indicated in Figure 3.

MAO-A = tested on: MAO-A; set-up: method as in PMID 24955776; details: cited from earlier work
human MAO-B = tested on: human MAO-B; set-up: method as in PMID 24955776; details: cited from earlier work
[2] = target: T2, Human recombinant MAO-A (hMAO-A) (Homo sapiens, UniProt P21397); test: Monoamine oxidase enzyme assay (Amplex Red), MAO-A selectivity assay; assay type: biochemical; details: for inhibition at 100 µM: single dose of 100 µM of compound
T2 construct: purchased Sigma-Aldrich (St. Louis, MO); host or cells: insect cells
T2 sequence (P21397 1-527): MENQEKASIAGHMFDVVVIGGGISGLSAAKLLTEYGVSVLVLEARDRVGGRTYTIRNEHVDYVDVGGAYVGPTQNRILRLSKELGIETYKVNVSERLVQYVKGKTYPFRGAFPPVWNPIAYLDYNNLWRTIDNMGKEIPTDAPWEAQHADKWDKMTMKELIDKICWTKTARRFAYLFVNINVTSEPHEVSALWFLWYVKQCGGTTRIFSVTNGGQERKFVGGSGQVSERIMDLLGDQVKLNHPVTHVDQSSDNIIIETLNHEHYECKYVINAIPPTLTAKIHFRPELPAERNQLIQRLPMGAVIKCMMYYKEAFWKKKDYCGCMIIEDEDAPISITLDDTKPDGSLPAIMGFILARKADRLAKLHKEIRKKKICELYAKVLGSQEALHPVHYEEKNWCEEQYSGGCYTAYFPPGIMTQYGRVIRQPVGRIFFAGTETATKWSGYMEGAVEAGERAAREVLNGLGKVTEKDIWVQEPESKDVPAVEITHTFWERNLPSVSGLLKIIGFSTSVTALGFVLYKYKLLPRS
Method: as §1
It is known that non-selective (MAO-A/B combined) inhibitors lead to several problems when taken concomitantly with tyramine-containing foods (such as cheese) since the drug's inhibition of MAO-A causes a dangerous elevation of serum tyramine levels, which can cause hypertensive symptoms. […] To calculate the selectivity index (SI: the selectivity for the MAO-B isoform given as the ratio of IC50 (MAO-A)/IC50 (MAO-B)), IC50 values of both compounds have been identified and found to be more than 100 µM. Consequently, the selectivity indices were calculated as illustrated in Table 2.

hMAO-B enzyme = target: T3, hMAO-B enzyme (Homo sapiens, UniProt P27338); test: Kinetic study of MAO-B inhibition mode (Michaelis-Menten, Lineweaver-Burk); assay type: biochemical
T3 construct: purchased Sigma-Aldrich (St. Louis, MO); host or cells: insect cells
T3 sequence (P27338 1-520): T1 sequence (P27338 1-520)
Method: The type of MAO-B inhibition of compound 4e was determined by the Michaelis–Menten kinetic study. The catalytic rates of hMAO-B enzyme in the absence or in the presence of three different concentrations (10, 30, and 100 nM) of compound 4e were measured at seven different concentrations of the benzylamine (0.065, 0.125, 0.25, 0.5, 1, 2, and 4 mM). The corresponding progression curves and the Lineweaver–Burk plots were generated using GraphPad Prism 7 (La Jolla, CA). The maximal velocity (Vmax), the Michaelis constant (Km), and the inhibition constant (Ki) were calculated using SigmaPlot® 13.0 (Palo Alto, CA).
Detailed substrate-dependent kinetic experiments were carried out to examine the mode of MAO-B inhibition of compound 4e. The initial rates of MAO-B inhibition in the absence and presence of 4e were measured at various concentrations of benzylamine, a selective substrate for MAO-B, and both Michaelis–Menten and the Lineweaver–Burk plots are depicted in Figure 4. The Lineweaver–Burk plots for three different concentration of 4e were linear and intersected at the y-axis.

[3] = single dose of 10 µM of compound

Compound	inhibition at 10 µM [1, 3]	melting point	further results
O=C(Nc1ccc2c(ccn2Cc2ccccn2)c1)c1cnccn1 [4h, N-(1-(pyridin-2-ylmethyl)-1H-indol-5-yl)pyrazine-2-carboxamide]	2.38 ± 0.66%	152 to 152.9 °C	
O=C(Nc1ccc2c(ccn2C(=O)c2cccc(F)c2)c1)c1ccnnc1 [4d, N-(1-(3-fluorobenzoyl)-1H-indol-5-yl)pyridazine-4-carboxamide]	19.1 ± 0.47%	196.7 to 196.9 °C	
O=C(Nc1ccc2c(ccn2Cc2ccc(F)cc2)c1)c1ccnnc1 [4a, N-(1-(4-fluorobenzyl)-1H-indol-5-yl)pyridazine-4-carboxamide]	13.2 ± 3.32%	212.6 to 213.1 °C	
Cn1cc(C(=O)Nc2ccc3[nH]ncc3c2)ccc1=O [V]			IC50 (MAO-A): > 10 µM; Activity over human MAO-B (in words) (human MAO-B): totally inactive; IC50 (human MAO-B): > 10 µM
O=C(Nc1ccc2c(ccn2C(=O)c2cccc(F)c2)c1)c1cccnc1 [4f, N-(1-(3-fluorobenzoyl)-1H-indol-5-yl)nicotinamide]	30.29 ± 0.24%	212.9 to 214.2 °C	
O=C(Nc1ccc2c(ccn2Cc2ccc(F)cc2)c1)c1cnccn1 [4b, N-(1-(4-fluorobenzyl)-1H-indol-5-yl)pyrazine-2-carboxamide]			IC50 [2]: > 100 µM; inhibition at 100 µM [2]: 12.9 ± 1.09%; IC50 [1]: 1.65 µM; inhibition at 10 µM [1]: 88.49 ± 0.13%; SI (selectivity index), IC50 (MAO-A)/IC50 (MAO-B) [1]: >60
O=C(Nc1ccc2c(ccn2Cc2ccc(F)cc2)c1)c1cccnc1 [4c, N-(1-(4-fluorobenzyl)-1H-indol-5-yl)nicotinamide]	11.2 ± 0.24%	200 to 200.4 °C	
O=C(Nc1ccc2[nH]ncc2c1)c1cccc(Cl)c1Cl [VI]			IC50 (MAO-A): > 10 µM; IC50 (human MAO-B): 2.59 µM
O=C(Nc1ccc2c(ccn2C(=O)c2cccc(F)c2)c1)c1cnccn1 [4e, N-(1-(3-fluorobenzoyl)-1H-indol-5-yl)pyrazine-2-carboxamide]	66.4 ± 0.79%	221.3 to 222.2 °C	IC50 [2]: > 100 µM; inhibition at 100 µM [2]: 4.76 ± 0.59%; Mode of MAO-B inhibition (hMAO-B enzyme; Lineweaver-Burk plots intersected at the y-axis): competitive; also recorded: reversible; Ki (hMAO-B enzyme; substrate benzylamine, 10, 30, 100 nM of 4e, read-out: Inhibition constant (Ki) MAO-B): 0.0945 µM; IC50 [1]: 0.78 µM; SI (selectivity index), IC50 (MAO-A)/IC50 (MAO-B) [1]: >120
Cn1ccc2cc(NC(=O)c3cccnc3)ccc21 [4l, N-(1-methyl-1H-indol-5-yl)nicotinamide]	11.6%	164.2 to 164.9 °C	
O=C(Nc1ccc2c(ccn2Cc2ccccn2)c1)c1ccnnc1 [4g, N-(1-(pyridin-2-ylmethyl)-1H-indol-5-yl)pyridazine-4-carboxamide]	1.83 ± 0.75%	141.8 to 143 °C	
Cn1ccc2cc(NC(=O)c3ccnnc3)ccc21 [4j, N-(1-methyl-1H-indol-5-yl)pyridazine-4-carboxamide]	9.52 ± 0.61%	181.1 to 182 °C	
Cn1ccc2cc(NC(=O)c3cnccn3)ccc21 [4k, N-(1-methyl-1H-indol-5-yl)pyrazine-2-carboxamide]	49.7 ± 0.68%	172.5 to 174 °C	
O=C(Nc1ccc2[nH]ncc2c1)c1c(F)cccc1Cl [VII]			IC50 (MAO-A): > 10 µM; IC50 (human MAO-B): 3.3 µM
O=C(Nc1ccc2c(ccn2Cc2ccccn2)c1)c1cccnc1 [4i, N-(1-(pyridin-2-ylmethyl)-1H-indol-5-yl)nicotinamide]	1.81 ± 0.85%	142.9 to 144.3 °C	
C#CCN[C@@H]1CCc2ccccc21 [rasagiline]			SI (selectivity index) for MAO-B (human MAO-B; calculated SI): > 50
